In brackets after ≈: the same amount, converted by molar mass.

Drawing on patent publication US10155756B2, “Pyrazolo[1,5-A]pyridine compounds and use thereof” (GUANGZHOU INSTITUTES OF BIOMEDICINE AND HEALTH, CHINESE …, priority 2014, dated 2018), this text covers MIC for 37 compounds.

For the experiment, the system named is self-luminescent tuberculosis. As to the kind of experiment: microbe, parasite or virus in culture. It is filed as cell-based. To be noted: Mycobacterium tuberculosis, 72 h; read-out: MIClux.
As to `Cc1ccn2nc(C)c(C(=O)NCc3ccc(-c4ccc(OC(F)(F)F)cc4)cn3)c2c1` [TJ830133, 2,5-dimethyl-N-((5-(4-(trifluoromethoxy)phenyl)pyridine-2-yl)methyl) pyrazolo [1,5-a] pyridine-3-carboxamide], the MIC was below 1 µg/mL.

Regarding `Cc1ccn2nc(C)c(C(=O)NCc3ccc(C(C)(C)C)cc3)c2c1` [TJ830135, N-(4-(tert-butyl)benzyl)-2,5-dimethylpyrazolo [1,5-a] pyridine-3-carboxamide], the MIC was below 1 µg/mL.

Consider `CCc1nn2ccc(Cl)cc2c1C(=O)NCc1ccc(C(=O)OC)cc1` [TJ064814, 4-((5-chloro-2-ethylpyrazolo [1,5-a]pyridine-3-carboxamide)methyl) methyl benzoate], for which the MIC was 1 to 10 µg/mL (≈ 2.69 to 26.9 µM).

For `Cc1ccn2nc(C)c(C(=O)NCc3ccc(F)cc3)c2c1` [TJ4570006, N-(4-fluorobenzyl)-2,5-dimethylpyrazolo [1,5-a] pyridine-3-carboxamide], the MIC lay in the range of 1 to 10 µg/mL (≈ 3.36 to 33.6 µM).

With `CCc1nn2ccc(Cl)cc2c1C(=O)NCc1ccc(F)cc1` [TJ4570004, 5-chloro-2-ethyl-N-(4-fluorobenzyl) pyrazolo [1,5-a] pyridine-3-carboxamide], the MIC is above 10 µg/mL.

For `Cc1ccn2nc(C)c(C(=O)NCc3ccc(C(F)(F)F)cc3)c2c1` [TJ830072], the MIC is below 1 µg/mL.

With `Cc1ccn2nc(C)c(C(=O)NCc3ccc(Oc4ccc(OC(F)(F)F)cc4)cc3)c2c1` [TJ830153], the MIC was below 1 µg/mL.

With `COc1ccn2nc(C)c(C(=O)NCc3ccc(N4CCC(c5ccc(OC(F)(F)F)cc5)CC4)cc3)c2c1` [TJ830047, 5-methoxy-2-methyl-N-(4-(4-(4-(trifluoromethoxy)phenyl)piperidine-1-yl)benzyl) pyrazolo [1,5-a] pyridine-3-carboxamide], the MIC was below 1 µg/mL.

For `Cc1ccn2nc(C)c(C(=O)NCc3ccc(N4CCC(Oc5ccc(OC(F)(F)F)cc5)CC4)cc3)c2c1` [TJ830161, 2,5-dimethyl-N-(4-(4-(4-(trifluoromethoxy)phenoxy)piperidine-1-yl)benzyl) pyrazolo [1,5-a] pyridine-3-carboxamide], the MIC is below 1 µg/mL.

Take `O=C(NCc1ccc(N2CCC(c3ccc(OC(F)(F)F)cc3)CC2)cc1)c1cnn2ccc(Cl)cc12` [TJ170371, 5-chloro-N-(4-(4-(4-(trifluoromethoxy)phenyl)piperidine-1-yl)benzyl) pyrazolo [1,5-a] pyridine-3-carboxamide]: the MIC is 1 to 10 µg/mL (≈ 1.89 to 18.9 µM).

`Cc1ccn2nc(C)c(C(=O)NCc3ccc(N4CCN(c5ccc(F)cc5)CC4)cc3)c2c1` [TJ830152, N-(4-(4-(4-fluorophenyl)piperazine-1-yl)benzyl)-2,5-dimethyl-pyrazolo [1,5-a] pyridine-3-carboxamide]: the MIC was below 1 µg/mL.

Regarding `Cc1ccn2nc(C)c(C(=O)NCc3ccc(N4CCC(C(F)(F)F)CC4)cc3)c2c1` [TJ830149, 2,5-dimethyl-N-(4-(4-(trifluoromethyl)piperidine-1-yl)benzyl) pyrazolo [1,5-a] pyridine-3-carboxamide], the MIC is below 1 µg/mL.

For the compound `Cc1nn2ccccc2c1C(=O)NCc1ccc(C(F)(F)F)cc1` [TJ830069], the MIC was 1 to 10 µg/mL (≈ 3 to 30 µM).

Take `CCOc1ccn2nc(C)c(C(=O)NCc3ccc(N4CCC(c5ccc(OC(F)(F)F)cc5)CC4)cc3)c2c1` [TJ830108, 5-methyl-2-ethoxy-N-(4-(4-(4-(trifluoromethoxy)phenyl)piperidine-1-substituted)benzyl) pyrazolo [1,5-a] pyridine-3-carboxamide]: the MIC was below 1 µg/mL.

For `Cc1ccn2nc(C)c(C(=O)NCc3ccc(Oc4ccc(F)cc4)cc3)c2c1` [TJ830147, N-(4-(4-fluorophenoxy)benzyl)-2,5-dimethylpyrazolo [1,5-a] pyridine-3-carboxamide], the MIC was below 1 µg/mL.

With `Cc1nn2ccc(C(F)(F)F)cc2c1C(=O)NCc1ccc(N2CCC(c3ccc(OC(F)(F)F)cc3)CC2)cc1` [TJ064995, 5-trifluoromethyl-2-methyl-N-(4-(4-(4-(trifluoromethoxy)phenyl)piperidine-1-yl)benzyl) pyrazolo [1,5-a] pyridine-3-carboxamide], the MIC lay in the range of 1 to 10 µg/mL (≈ 1.73 to 17.3 µM).

Regarding `O=C(NCc1ccc(N2CCC(c3ccc(OC(F)(F)F)cc3)CC2)cc1)c1c(-c2ccccc2)nn2ccc(Cl)cc12` [TJ170386, 5-chloro-2-phenyl-N-(4-(4-(4-(trifluoromethoxy)phenyl)piperidine-1-yl)benzyl) pyrazolo [1,5-a] pyridine-3-carboxamide], the MIC is above 10 µg/mL.

On to `Cc1ccn2nc(C)c(C(=O)NCc3ccc(N(C)C)cc3)c2c1` [TJ830136, N-(4-(dimethylamino)benzyl)-2,5-dimethylpyrazolo [1,5-a] pyridine-3-carboxamide], for which the MIC was below 1 µg/mL.

As to `Cc1ccc2c(C(=O)NCc3ccc(N4CCC(c5ccc(OC(F)(F)F)cc5)CC4)cc3)c(C)nn2c1` [TJ064854, 2,6-dimethyl-N-(4-(4-(4-(trifluoromethoxy)phenyl)piperidine-1-yl)benzyl) pyrazolo[1,5-a] pyridine-3-carboxamide], the MIC is below 1 µg/mL.

Turning to `CCc1nn2ccc(Cl)cc2c1C(=O)N(C)Cc1ccc(N2CCC(c3ccc(OC(F)(F)F)cc3)CC2)cc1` [TJ064985], the MIC lay in the range of 1 to 10 µg/mL (≈ 1.75 to 17.5 µM).

In the case of `Cc1ccn2nc(C)c(C(=O)NCc3ccc(-c4ccc(OC(F)(F)F)cc4)s3)c2c1` [TJ830132, 2,5-dimethyl-N-((5-(4-(trifluoromethoxy)phenyl)thiophene-2-yl)methyl) pyrazolo [1,5-a] pyridine-3-carboxamide], the MIC was below 1 µg/mL.

On to `CCc1nn2ccc(Cl)cc2c1C(=O)NC(C)c1ccc(N2CCC(c3ccc(OC(F)(F)F)cc3)CC2)cc1` (stereo not shown) [TJ830070, 5-chloro-2-ethyl-N-(1-(4-(4-(4-(trifluoromethoxy)phenyl)piperidine-1-yl)phenyl)ethanol) pyrazolo [1,5-a] pyridine-3-carboxamide], for which the MIC is above 10 µg/mL.

Turning to `Cc1nn2ccc(C(C)(C)C)cc2c1C(=O)NCc1ccc(N2CCC(c3ccc(OC(F)(F)F)cc3)CC2)cc1` [TJ830075, 5-tert-Butyl-2-methyl-N-(4-(4-(4-(trifluoromethoxy)phenyl)piperidine-1-substituted)benzyl) pyrazolo [1,5-a] pyridine-3-carboxamide], the MIC is above 10 µg/mL.

For the compound `Cc1ccn2nc(C)c(C(=O)NCc3cnc(-c4ccc(OC(F)(F)F)cc4)nc3)c2c1` [TJ830150, 2,5-Dimethyl-N-((2-(4-(trifluoromethoxy)phenyl)pyrimidine-5-yl)methyl) pyrazolo [1,5-a] pyridine-3-carboxamide], the MIC is below 1 µg/mL.

Turning to `Cc1ccn2nc(C)c(C(=O)NCc3ccc(N4CCCCC4)cc3)c2c1` [TJ830146, 2,5-dimethyl-N-(4-(piperidine-1-yl)benzyl) pyrazolo [1,5-a] pyridine-3-carboxamide], the MIC is below 1 µg/mL.

With `Cc1ccn2nc(C)c(C(=O)NCc3ccc(-c4ccc(OC(F)(F)F)cc4)cc3)c2c1` [TJ830151, 2,5-dimethyl-N-((4′-(trifluoromethoxy)-[1,1′-biphenyl]-4-yl)methyl) pyrazolo [1,5-a] pyridine-3-carboxamide], the MIC is below 1 µg/mL.

Consider `Cc1nn2cccc(C)c2c1C(=O)NCc1ccc(N2CCC(c3ccc(OC(F)(F)F)cc3)CC2)cc1` [TJ064872, 2,4-dimethyl-N-(4-(4-(4-(trifluoromethoxy)phenyl)piperidine-1-yl)benzyl) pyrazolo[1,5-a] pyridine-3-carboxamide], for which the MIC was above 10 µg/mL.

With `CCc1nn2ccc(C)cc2c1C(=O)NCc1ccc(N2CCC(c3ccc(OC(F)(F)F)cc3)CC2)cc1` [TJ830102, 5-methyl-2-ethyl-N-(4-(4-(4-(trifluoromethoxy)phenyl)piperidine-1-substituted)benzyl) pyrazolo [1,5-a] pyridine-3-carboxamide], the MIC was below 1 µg/mL.

`Cc1nn2ccc(C(C)C)cc2c1C(=O)NCc1ccc(N2CCC(c3ccc(OC(F)(F)F)cc3)CC2)cc1` [TJ830073, 5-isopropyl-2-methyl-N-(4-(4-(4-(trifluoromethoxy)phenyl)piperidine-1-yl)benzyl) pyrazolo [1,5-a] pyridine-3-carboxamide]: the MIC lay in the range of 1 to 10 µg/mL (≈ 1.82 to 18.2 µM).

On to `CCc1ccn2nc(C)c(C(=O)NCc3ccc(N4CCC(c5ccc(OC(F)(F)F)cc5)CC4)cc3)c2c1` [TJ830082, 5-ethyl-2-methyl-N-(4-(4-(4-(trifluoromethoxy)phenyl)piperidine-1-substituted)benzyl) pyrazolo [1,5-a] pyridine-3-carboxamide], for which the MIC is below 1 µg/mL.

Turning to `Cc1ccn2nc(C)c(C(=O)NCc3cn(-c4ccc(OC(F)(F)F)cc4)nn3)c2c1` [TJ830003], the MIC was above 10 µg/mL.

Consider `Cc1ccn2nc(C)c(C(=O)NCc3ccc(N4CCC(c5ccc(F)cc5)CC4)cc3)c2c1` [TJ830141, N-(4-(4-(4-fluorophenyl)piperidine-1-yl)benzyl)-2,5-dimethyl-pyrazolo [1,5-a] pyridine-3-carboxamide], for which the MIC is below 1 µg/mL.

As to `Cc1nn2c(C)cccc2c1C(=O)NCc1ccc(N2CCC(c3ccc(OC(F)(F)F)cc3)CC2)cc1` [TJ064851, 2,7-dimethyl-N-(4-(4-(4-(trifluoromethoxy)phenyl)piperidine-1-yl)benzyl) pyrazolo[1,5-a] pyridine-3-carboxamide], the MIC was 1 to 10 µg/mL (≈ 1.91 to 19.1 µM).

Regarding `Cc1ccn2nc(C)c(C(=O)NCc3ccc(-c4ccc(OC(F)(F)F)cc4)nc3)c2c1` [TJ830025, 2,5-dimethyl-N-((6-(4-(trifluoromethoxy)phenyl)pyridine-3-yl)methyl) pyrazolo [1,5-a] pyridine-3-carboxamide], the MIC was below 1 µg/mL.

Consider `CCc1nn2ccc(Cl)cc2c1C(=O)NC(C)(C)c1ccc(N2CCC(c3ccc(OC(F)(F)F)cc3)CC2)cc1` [TJ064987, 5-chloro-2-ethyl-N-(2-(4-(4-(4-(trifluoromethoxy)phenyl)piperidine-1-yl)phenyl)propane-2-substituted) pyrazolo [1,5-a] pyridine-3-carboxamide], for which the MIC is above 10 µg/mL.

Take `CCc1nn2ccc(OC)cc2c1C(=O)NCc1ccc(N2CCC(c3ccc(OC(F)(F)F)cc3)CC2)cc1` [TJ064889, 5-methoxy-2-ethyl-N-(4-(4-(4-(trifluoromethoxy)phenyl)piperidine-1-substituted)benzyl) pyrazolo[1,5-a] pyridine-3-carboxamide]: the MIC is below 1 µg/mL.

On to `CCCc1nn2ccc(Cl)cc2c1C(=O)NCc1ccc(N2CCC(c3ccc(OC(F)(F)F)cc3)CC2)cc1` [TJ830134], for which the MIC was below 1 µg/mL.
